# Experimental data reported in publication PMC9964140, “Exploration of Succinimide Derivative as a Multi-Target, Anti-Diabetic Agent: In Vitro and In Vivo Approaches” (Molecules, 2023).
# What was measured:
# [1] = test system: diabetic mice; assay: In vivo anti-diabetic assay (blood glucose, 21 days); set-up: species or system albino mice
# From the text: For in vivo anti-diabetic efficacy, albino mice having weight of 30 g were employed. The animals utilized in experiments were compliant with the 2008 Animal Bye-Laws of the Pharmacy Department at the University of Malakand in Pakistan (Scientific Procedure Issue-I). The animals were handled according to accepted practices and housed in an animal facility during the experimental procedures. The animals were put to death following the experiment in accordance with AVMA rules.
# The mice were given 10% alloxan monohydrate at a dose of 150 mg/kg body weight through IP in order to induce diabetes. The control group received a normal saline IP during this trial. Following the administration of alloxan, the animals’ blood glucose levels were checked using a glucometer. According to the protocols, in the in vivo study, mice with elevated blood sugar concentrations were also utilized.
# (§1) The mice were placed into 4 groups, with 5 animals in each group having elevated blood glucose levels. Group I was the normal group, which had normal blood glucose levels and was given saline. Group II was treated with a Tween 80 solution; in this group, diabetic mice were kept. Glibenclamide was administered at a 500 μM/Kg dose to group III, which was the control group with diabetic mice. Group IV, the final group, received treatment with different concentrations of the produced substance. The mice were killed after three weeks (21 days) by cervical decapitation, and blood samples and organs were taken for H & E staining-based histological analysis and for bioassays.
# [2] = biological target: DPP-4 (Homo sapiens, UniProt P27487); assay: Dipeptidyl peptidase-4 (DPP-4) fluorescence probe test; format: biochemical; conditions: ± SEM; read-out: IC50 DPP4
# Sequence of DPP-4 (P27487 whole entry, species assumed): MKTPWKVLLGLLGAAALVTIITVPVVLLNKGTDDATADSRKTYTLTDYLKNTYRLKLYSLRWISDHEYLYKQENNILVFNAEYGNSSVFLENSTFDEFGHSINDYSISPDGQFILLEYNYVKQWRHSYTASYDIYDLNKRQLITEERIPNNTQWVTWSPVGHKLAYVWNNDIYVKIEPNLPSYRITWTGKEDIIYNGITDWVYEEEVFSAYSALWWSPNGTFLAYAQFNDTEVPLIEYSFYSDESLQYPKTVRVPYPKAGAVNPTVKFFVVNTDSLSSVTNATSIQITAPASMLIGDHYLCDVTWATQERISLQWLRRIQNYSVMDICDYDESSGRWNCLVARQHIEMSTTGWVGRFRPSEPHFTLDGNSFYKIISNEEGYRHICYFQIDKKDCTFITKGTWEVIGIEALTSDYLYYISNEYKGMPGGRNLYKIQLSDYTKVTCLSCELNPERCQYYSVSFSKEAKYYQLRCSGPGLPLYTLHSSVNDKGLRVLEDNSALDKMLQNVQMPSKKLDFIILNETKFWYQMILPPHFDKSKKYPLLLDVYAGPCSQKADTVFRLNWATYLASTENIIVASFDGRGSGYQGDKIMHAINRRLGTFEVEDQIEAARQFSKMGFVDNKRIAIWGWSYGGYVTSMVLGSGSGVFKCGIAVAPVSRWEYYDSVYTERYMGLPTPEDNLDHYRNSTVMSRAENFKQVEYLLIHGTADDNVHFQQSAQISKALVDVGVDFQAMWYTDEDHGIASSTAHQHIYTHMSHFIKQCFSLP
# Experimental: Our compound’s inhibitory impact on the DPP-4 target was identified by a fluorescence probe in vitro assay. […] In a 96-well microplate reader, the test results were recorded. At first, various concentrations of the chemical were used to determine its action. Then, in accordance with the normal approach, a dose-dependent response was identified in order to estimate the IC50 value.
# [3] = test system: STZ-induced diabetic mice; assay: Body weight, insulin, lipid profile, serum markers and histopathology in STZ-induced diabetic mice; format: in vivo; conditions: for histopathology of liver, kidney and pancreas: H & E staining; for effect on body weight of diabetic mice: treated; for insulin levels: treated STZ-induced diabetic mice, untreated diabetic group 2.5 ± 0.15, normal control 13.5 ± 0.95
# Experimental: as §1
# [4] = test system: mice; conditions: mouse, in vivo
# Experimental: Prior to putting the drug through tests on lab animals, its acute toxicity was determined. Two groups of experimental mice, (1) the control group and (2) the test group, were used for this experiment. Each group consisted of five mice. It was conducted intraperitoneally with different concentrations of the chemical. The mice were then closely examined for three days in the animal home after the chemical was administered to check for death or any unfavorable reactions.
# [5] = biological target: α-Amylase; assay: Alpha-amylase test; format: biochemical; conditions: ± SEM
# Experimental: In order to evaluate the alpha-amylase test, standardized reporting protocols were followed [35]. In order to combine the enzyme and the phosphate buffer, test samples of varying strengths were added to the enzymatic solution. Incubation of the sample was followed by admixing of starch to both the control and test solutions and a dinitro salicylic acid solution. The sample combination was then maintained in a boiling water bath for a short period of time, and a microplate reader was used to measure the absorbance at 656 nm.
# The formula below was used to calculate the α-amylase enzyme’s percentage inhibition capability: Percent Inhibition=Absorbance of Control − Absorbance of Sample ×100/Absorbance of Control
# [6] = Antioxidant (DPPH) test; conditions: DPPH free radical scavenging
# Experimental: For identifying free radicals and the scavenging potential of new organic compounds, Sigma Aldrich USA’s DPPH was employed. Methanol was employed as a solvent for preparing test samples of varying strengths of the examined substances. Two milliliters of the test sample’s variation strength were blended separately with two milliliters of the DPPH solution and 0.002% methanol. After being stored in the dark and at room temperature for 30 min, test tubes were examined using a UV spectrophotometer to measure the absorbance at 517 nm. As is customary, ascorbic acid was employed here, and the procedure was then repeated three times. Utilizing the formula below, the tested specimen’s scavenging activity was calculated: Scavenging activity % = (A − B)/A × 100. The letters “A” and “B” stand for the absorbance of the DPPH and the test sample, respectively. By plotting a graph of the scavenging effect of the tested compounds versus the concentration of the corresponding solution, IC50 values were determined.
# [7] = biological target: T1, PTP1 B (Homo sapiens, UniProt P18031); assay: Protein tyrosine phosphatase 1 B (PTP1 B) test; format: biochemical; conditions: ± SEM; pH 7, 40 min at 27 °C
# T1 sequence (P18031 1-435): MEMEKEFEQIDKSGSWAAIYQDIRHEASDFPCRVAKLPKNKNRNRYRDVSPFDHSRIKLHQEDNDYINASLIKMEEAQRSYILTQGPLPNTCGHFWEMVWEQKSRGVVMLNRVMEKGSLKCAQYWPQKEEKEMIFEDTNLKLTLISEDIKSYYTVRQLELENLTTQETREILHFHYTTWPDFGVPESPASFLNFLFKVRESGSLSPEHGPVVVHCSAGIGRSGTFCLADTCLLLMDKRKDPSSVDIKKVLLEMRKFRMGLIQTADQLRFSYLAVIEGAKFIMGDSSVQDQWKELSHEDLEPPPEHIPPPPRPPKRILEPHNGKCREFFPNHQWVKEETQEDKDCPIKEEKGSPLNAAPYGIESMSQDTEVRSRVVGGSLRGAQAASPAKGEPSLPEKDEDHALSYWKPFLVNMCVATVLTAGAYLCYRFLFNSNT
# Experimental: It is performed with a buffer solution of 3,3-dimethyl glutarate at a pH of 7. Additionally, a PTP1 B 10 mM solution, p-NO2-phenol phosphate of 1 mM, and numerous additional concentrations of the substance were made. As a result, the mixtures were incubated for 40 min at 27 °C. Then, measurements of the absorbances were conducted at 405 nm after the designated 40 min.
# [8] = biological target: α-Glucosidase; assay: Alpha-glucosidase test; format: biochemical; conditions: ± SEM
# Experimental: A concentration of 0.5 mg/11 mL distilled water and a substrate solution of glucopyranoside at 15 mg/10 mL distilled water concentration were added to […] of a phosphate buffer and kept at 37 °C for 20 min, respectively, to prepare the sample. To prepare the control, 1200 μL of the phosphate buffer was added to the test tube. Next, 400 μL of the substrate solution (glucopyranoside 15 mg/10 mL distilled water) and 800 µL of an enzyme solution were mixed. At last, the temperature was kept at 37 °C for 20 min.
# [9] = diabetic mice, compared to diabetic mice not given the medication
compound,measurement,setting,value
"COc1cc(CC(C)=O)ccc1OC1CC(=O)N(Cc2ccccc2)C1=O (stereo not shown) [Compound 3, 1-benzyl-3-(2-methoxy-4-(2-oxopropyl)phenoxy)pyrrolidine-2,5-dione]",Blood Glucose Level 0 Day,[1]; 15.625 µM/kg IP,22.7 mmole per Liter
same,Blood Glucose Level 7th Day,[1]; 15.625 µM/kg IP,19.7 mmole per Liter
same,Blood Glucose Level 14th Day,[1]; 15.625 µM/kg IP,17.6 mmole per Liter
same,Blood Glucose Level 21st Day,[1]; 15.625 µM/kg IP,15.1 mmole per Liter
same,Blood Glucose Level 0 Day,[1]; 31.25 µM/kg IP,22.9 mmole per Liter
same,Blood Glucose Level 7th Day,[1]; 31.25 µM/kg IP,19.1 mmole per Liter
same,Blood Glucose Level 14th Day,[1]; 31.25 µM/kg IP,17.1 mmole per Liter
same,Blood Glucose Level 21st Day,[1]; 31.25 µM/kg IP,13.6 mmole per Liter
same,Blood Glucose Level 0 Day,[1]; 62.5 µM/kg IP,23.2 mmole per Liter
same,Blood Glucose Level 7th Day,[1]; 62.5 µM/kg IP,19.3 mmole per Liter
same,Blood Glucose Level 14th Day,[1]; 62.5 µM/kg IP,16.7 mmole per Liter
same,Blood Glucose Level 21st Day,[1]; 62.5 µM/kg IP,13.1 mmole per Liter
same,Blood Glucose Level 0 Day,[1]; 125 µM/kg IP,22.6 mmole per Liter
same,Blood Glucose Level 7th Day,[1]; 125 µM/kg IP,18.9 mmole per Liter
same,Blood Glucose Level 14th Day,[1]; 125 µM/kg IP,16.2 mmole per Liter
same,Blood Glucose Level 21st Day,[1]; 125 µM/kg IP,12.8 mmole per Liter
same,Blood Glucose Level 0 Day,[1]; 250 µM/kg IP,22.4 mmole per Liter
same,Blood Glucose Level 7th Day,[1]; 250 µM/kg IP,18.4 mmole per Liter
same,Blood Glucose Level 14th Day,[1]; 250 µM/kg IP,15.7 mmole per Liter
same,Blood Glucose Level 21st Day,[1]; 250 µM/kg IP,12.2 mmole per Liter
same,IC50,[2],0.07 ± 0.03 µM
same,body weight gain,"[3]; STZ + compound 3 group (Tg-5), final vs initial day, diabetic group lost 1.9 ± 0.05 g",1.55 g
same,BUN,[3]; STZ-induced diabetic mice,decreased the excess peak
same,HDL levels,[3]; STZ-induced diabetic mice,raising HDL levels
same,LDL levels,[3]; STZ-induced diabetic mice,dramatically reduced
same,creatinine,[3]; STZ-induced diabetic mice,decreased the excess peak
same,serum ALP,[3]; STZ-induced diabetic mice,suppressed the enhanced rise
same,serum ALT,[3]; STZ-induced diabetic mice,suppressed the enhanced rise
same,serum AST,[3]; STZ-induced diabetic mice,suppressed the enhanced rise
same,"histopathology of liver, kidney and pancreas",[3]; STZ-induced diabetic mice,healed from the histological injuries
same,effect on body weight of diabetic mice,[3]; STZ-induced diabetic mice,recovered their bodyweight
same,reduction of total cholesterol,[3]; [9],34.9%
same,reduction of total triglycerides,[3]; [9],35.20%
same,effect on body weight of non-diabetic mice,[3]; non-diabetic group,did not affect the body weights
same,insulin levels,[3],10.9 ± 0.25 ng/mL
same,acute toxicity: allergic reaction,[4],no sign of an allergic reaction
same,acute toxicity outcome,[4]; ip,safe and had no adverse effects
same,IC50,[5],15.4 ± 0.15 µM
same,IC50,[6],3.31 ± 0.65 µM
same,IC50,[7],13.2 ± 0.11 µM
same,IC50,[8],7.2 ± 0.92 µM
"O=C1O[C@H]([C@@H](O)CO)C(O)=C1O [Ascorbic acid, reference compound]",IC50,[6],1.44 ± 0.2 µM
"CN(C)C(=N)N=C(N)N [Metformin, reference compound]",serum ALP,[3]; STZ-induced diabetic mice,suppressed the enhanced rise
same,serum ALT,[3]; STZ-induced diabetic mice,suppressed the enhanced rise
same,serum AST,[3]; STZ-induced diabetic mice,suppressed the enhanced rise
same,"histopathology of liver, kidney and pancreas",[3]; STZ-induced diabetic mice,healed from the histological injuries
same,effect on body weight of diabetic mice,[3]; STZ-induced diabetic mice,recovered their bodyweight
same,insulin levels,[3],12.2 ± 0.29 ng/mL
"COc1ccc(Cl)cc1C(=O)NCCc1ccc(S(=O)(=O)NC(=O)NC2CCCCC2)cc1 [Glibenclamide, reference compound]",Blood Glucose Level 0 Day,[1]; 250 µM/kg IP,21.5 mmole per Liter
same,Blood Glucose Level 7th Day,[1]; 250 µM/kg IP,17.7 mmole per Liter
same,Blood Glucose Level 14th Day,[1]; 250 µM/kg IP,14.5 mmole per Liter
same,Blood Glucose Level 21st Day,[1]; 250 µM/kg IP,11.1 mmole per Liter
